Common to all, as to assay: NCI-60 cell line screen, 48 h
The test system of assay [1] is CAKI-1 renal.
In assay [2] the test system is HCC-2998 colon.
In assay [3] the test system is UACC-62 melanoma.
The subject of assay [4] is SW-620 colon.
Assay [5] deals with A549 NSCLC.
Assay [6] deals with NCI-H522 lung.
The subject of assay [7] is K-562 leukemia.
The subject of assay [8] is DU-145 prostate.
Assay [9] relates to KM12 colon.
Assay [10] concerns RPMI-8226 leukemia.

The structures appear in SMILES notation.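 These data come from cells grown in 96-well plates and exposed to compound for 48 hours at five concentrations. GI50 marks 50% less growth. The concentration for full growth arrest is given as TGI.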

Consider `NC(=O)[C@H]1CCN(c2ncnc(N)c2F)C[C@@H]1N1CCC[C@@H](Nc2cc(Cl)cc(C(F)(F)F)c2)C1=O`, for which the GI50 in [1] is 6.67 µM; in [2] it was 14.6 µM; in [3] it was 13.9 µM; in assay [4], 25.6 µM; in assay [5], 15.8 µM; in assay [6], 7.11 µM. The GI50 in assay [7] is 18.4 µM; in assay [8], 10.8 µM; in assay [9] it was 6.31 µM; in assay [10] it was 16.8 µM. Further, the TGI in assay [1] was 89.7 µM; in [2] it was 36.3 µM; in assay [3], 29.5 µM; in assay [4], > 100 µM; in [5], > 100 µM; in [6], 28.4 µM. For the same molecule, the TGI was > 100 µM in assay [7], > 100 µM in assay [8], > 100 µM in assay [9] and 56.3 µM in assay [10].

As to `N#Cc1ncc(/N=C/c2ccc(N(CCCl)CCCl)cc2)s1`, the GI50 in [1] was 2.22 µM; in assay [2] it was 23.9 µM; in assay [3], 3.09 µM; in assay [4], 9.69 µM; in [5], 28.2 µM; in [6], 29.8 µM. For the same molecule, the GI50 was 7.51 µM in assay [7], 5.62 µM in [8], 76.5 µM in assay [9] and 53.7 µM in assay [10]. Moreover, the TGI in assay [1] was 8.18 µM; in assay [2], > 100 µM; in assay [3] it was 28.7 µM; in assay [4] it was > 100 µM; in assay [5] it was > 100 µM; in [6], > 100 µM. In addition, the TGI in assay [7] was > 100 µM; in [8], 57.1 µM; in assay [9] it was > 100 µM; in assay [10], > 100 µM.

Turning to `CCN(CC)c1ccc(/C=C/c2cc(C)c3ccccc3n2)cc1`, the GI50 was 1.93 µM in assay [1]; 4.11 µM in [2]; 3.31 µM in [3]; 1.87 µM in assay [4]; 3.99 µM in [5]; 1.31 µM in [6]. Besides, the GI50 in [7] is 0.64 µM; in assay [8] it was 3.43 µM; in assay [9], 2.31 µM; in assay [10], 3.11 µM. For the same molecule, the TGI in assay [1] is 13.4 µM; in assay [2], 81.1 µM; in [3], 22.6 µM; in assay [4], 9.21 µM; in assay [5], > 100 µM; in [6], 3.91 µM. For the same molecule, the TGI was determined as 15 µM in assay [7], 15.3 µM in assay [8], 13.2 µM in [9] and 11.3 µM in [10].

In the case of `Fc1ccc(-c2nc3n(c2-c2ccncc2)CCS3)cc1`, the GI50 in [1], in assay [2], in assay [3], in assay [4], in [5] and in assay [6] was > 25 µM in each case. The GI50 in [7], in assay [8], in assay [9] and in [10] was > 25 µM in each case. In addition, the TGI in assay [1], in assay [2], in assay [3], in assay [4], in [5] and in assay [6] was > 25 µM throughout. The TGI in assay [7], in assay [8], in [9] and in assay [10] was > 25 µM in each case.

For `CC1Oc2cc3c(-c4c(O)cc(O)c5c(O)c6c(cc45)OC(C)C(C)C6=O)c(O)cc(O)c3c(O)c2C(=O)C1C` (stereo not given), the TGI in assay [1] is 2.36 µM; in assay [2], 1.63 µM; in [3], 1.34 µM; in assay [4], 1.52 µM; in assay [5], 1.29 µM; in assay [6], 1.63 µM. Further, the TGI in [7] is 0.627 µM; in assay [8], 10.7 µM; in assay [9], 1.51 µM; in assay [10], 0.469 µM.

For the molecule `CCCN1C(=O)/C(=c2\sc3n(c2=O)C2C(NN=3)N(CC)C(=O)N2CC)c2ccccc21` (stereo not given), the GI50 in assay [1] is 0.445 µM; in assay [2] it was 1.56 µM; in assay [3] it was 0.489 µM; in assay [4] it was 0.409 µM; in assay [5] it was 0.854 µM; in [6] it was 0.356 µM. In addition, the GI50 in assay [7] was 0.374 µM; in [8], 0.421 µM; in assay [9] it was 0.41 µM; in assay [10] it was 0.427 µM. The TGI is 16.1 µM in assay [1]; 19.6 µM in assay [2]; 17.4 µM in assay [3]; > 100 µM in assay [4]; 16.5 µM in assay [5]; 4.51 µM in assay [6]. For the same molecule, the TGI was > 100 µM in assay [7], 11 µM in assay [8], 13.8 µM in assay [9] and 6.48 µM in assay [10].

Regarding `OCC1OC(n2ccc3c2ncn2ncnc32)C(O)C1O` (stereo not given), the GI50 was 2.67 µM in assay [1]; 3.09 µM in assay [2]; 8.42 µM in assay [3]; 0.528 µM in assay [4]; 4.91 µM in [5]; 90.4 µM in assay [6]. The GI50 is 2.07 µM in assay [7], 0.379 µM in [8], 2.42 µM in assay [9] and 6.62 µM in assay [10]. Moreover, the TGI in [1], in assay [2], in [3], in assay [4], in assay [5] and in assay [6] was > 100 µM each time. Further, the TGI in assay [7], in assay [8], in assay [9] and in assay [10] was > 100 µM throughout.

In the case of `Cc1ccc2[nH]c(C(=O)NN3C(=O)CSC34CCCCC4C)c(-c3ccccc3)c2c1` (stereo not given), the GI50 in assay [1] is 16.1 µM; in assay [2], 16.4 µM; in assay [3], 12.8 µM; in [4], 23.8 µM; in assay [5] it was 13.2 µM; in assay [6], 13.1 µM. In addition, the GI50 in [7] was 10.8 µM; in [8], 18.2 µM; in assay [9], 14.9 µM; in assay [10] it was 13.8 µM. For the same molecule, the TGI in assay [1] worked out at 32.2 µM; in assay [2], 31.6 µM; in assay [3] it was 26.8 µM; in [4], 60.1 µM; in assay [5], 28.2 µM; in assay [6] it was 27.9 µM. Besides, the TGI in assay [7] was determined as 42.1 µM; in assay [8], 44.1 µM; in assay [9] it was 34.7 µM; in assay [10] it was 35.2 µM.

These data come from PubChem BioAssay (NCI).
